The record followed here is patent US20230019491A1, “PYRIMIDINE TBK/IKKe INHIBITOR COMPOUNDS AND USES THEREOF” (Merck Patent GmbH, priority 2017, published 2023).

The target of one assay is T1, IKKε (Homo sapiens, UniProt Q14164).
T1 sequence (Q14164 1-716): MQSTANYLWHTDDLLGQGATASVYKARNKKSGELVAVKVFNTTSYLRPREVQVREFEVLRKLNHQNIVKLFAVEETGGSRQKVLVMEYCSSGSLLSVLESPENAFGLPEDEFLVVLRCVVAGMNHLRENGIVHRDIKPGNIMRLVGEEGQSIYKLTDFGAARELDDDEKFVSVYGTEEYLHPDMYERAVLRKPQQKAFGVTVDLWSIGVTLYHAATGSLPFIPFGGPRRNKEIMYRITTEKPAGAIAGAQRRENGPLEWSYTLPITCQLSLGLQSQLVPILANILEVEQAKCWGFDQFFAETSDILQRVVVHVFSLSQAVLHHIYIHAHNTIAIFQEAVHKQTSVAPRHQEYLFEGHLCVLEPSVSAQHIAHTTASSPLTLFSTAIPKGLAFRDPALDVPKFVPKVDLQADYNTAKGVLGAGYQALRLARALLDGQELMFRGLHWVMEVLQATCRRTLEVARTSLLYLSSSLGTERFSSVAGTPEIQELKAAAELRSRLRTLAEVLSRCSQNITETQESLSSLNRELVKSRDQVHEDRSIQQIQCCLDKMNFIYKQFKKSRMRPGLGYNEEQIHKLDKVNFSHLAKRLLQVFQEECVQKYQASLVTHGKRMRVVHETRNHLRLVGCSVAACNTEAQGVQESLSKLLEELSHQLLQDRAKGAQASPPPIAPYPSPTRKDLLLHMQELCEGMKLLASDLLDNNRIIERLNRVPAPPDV
The assay is described as follows: IKKε biochemical assay. Particulars: 10 point 1:4 dose response, 30 uM top concentration, 90 min at 25° C., LabChip EZ Reader II; read-out: IKKε_IC50. In short, it runs like this:
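Compounds in 1% DMSO final were incubated with IKKε enzyme and substrate at 25° C. for 90 min, then stopped. Substrate and product peaks were resolved by LabChip EZ Reader II mobility-shift read-out. Staurosporine at 10 uM final served as the full-inhibition control.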

In another assay the target is T2, TBK1 (Homo sapiens, UniProt Q9UHD2).
T2 sequence (Q9UHD2 1-729): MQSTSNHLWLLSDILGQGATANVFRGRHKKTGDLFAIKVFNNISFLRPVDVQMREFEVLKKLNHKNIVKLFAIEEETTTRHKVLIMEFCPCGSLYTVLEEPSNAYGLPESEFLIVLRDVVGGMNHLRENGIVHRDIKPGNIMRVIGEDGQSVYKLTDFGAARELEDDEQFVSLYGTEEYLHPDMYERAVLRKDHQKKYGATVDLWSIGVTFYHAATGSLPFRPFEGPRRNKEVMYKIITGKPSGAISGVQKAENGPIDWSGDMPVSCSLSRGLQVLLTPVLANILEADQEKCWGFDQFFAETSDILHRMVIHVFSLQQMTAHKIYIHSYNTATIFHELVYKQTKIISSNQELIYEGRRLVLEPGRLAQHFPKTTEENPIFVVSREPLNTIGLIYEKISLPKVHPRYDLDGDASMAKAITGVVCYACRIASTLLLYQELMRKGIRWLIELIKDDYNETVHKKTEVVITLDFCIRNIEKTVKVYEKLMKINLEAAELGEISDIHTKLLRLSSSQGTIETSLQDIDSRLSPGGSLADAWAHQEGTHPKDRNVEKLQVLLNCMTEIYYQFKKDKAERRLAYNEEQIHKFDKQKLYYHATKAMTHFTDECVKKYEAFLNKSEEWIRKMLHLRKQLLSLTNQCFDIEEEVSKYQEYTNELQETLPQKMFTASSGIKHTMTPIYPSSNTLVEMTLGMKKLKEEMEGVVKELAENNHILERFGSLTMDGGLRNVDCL
The experiment in a line: TBK biochemical assay. The conditions noted are these: 10 point 1:4 dose response, 30 uM top concentration, 90 min at 25° C., LabChip EZ Reader II; read-out: TBK1_IC50. The essentials:
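Substrate and product were separated and quantified by microfluidic mobility-shift read (LabChip). 10 uM staurosporine served as the full-inhibition control, and the reference compound was tested from 1 uM final.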

With `COc1nc(Nc2nccc(-c3ccc(OC4CCNCC4(F)F)c(C#N)c3)n2)ccc1N1CCN(C)C[C@H]1C` (stereo partly drawn) [Example 108, 2-(3,3-Difluoro-piperidin-4-yloxy)-5-{2-[5-((R)-2,4-dimethyl-piperazin-1-yl)-6-methoxy-pyridin-2-ylamino]-pyrimidin-4-yl}-benzonitrile], the IC50 on IKKε and at TBK1 was less than 100 nM in each case.

Regarding `COc1nc(Nc2nccc(-c3ccc(OC4CCNCC4(F)F)c(C#N)c3)n2)ccc1N1CCN(C)C[C@@H]1C` (stereo partly drawn) [Example 109, 2-(3,3-Difluoro-piperidin-4-yloxy)-5-{2-[5-((S)-2,4-dimethyl-piperazin-1-yl)-6-methoxy-pyridin-2-ylamino]-pyrimidin-4-yl}-benzonitrile], the IC50 at IKKε and on TBK1 was less than 100 nM throughout.

Regarding `COc1nc(Nc2nccc(-c3ccc(OC4CCN(C(=O)[C@@H](C)O)CC4(F)F)c(C#N)c3)n2)ccc1N1CCN(C)C[C@@H]1C` (stereo partly drawn) [Example 111, 2-[3,3-Difluoro-1-((R)-2-hydroxy-propionyl)-piperidin-4-yloxy]-5-{2-[5-((S)-2,4-dimethyl-piperazin-1-yl)-6-methoxy-pyridin-2-ylamino]-pyrimidin-4-yl}-benzonitrile], the IC50 on IKKε and on TBK1 was less than 100 nM each time.

`COc1nc(Nc2nccc(-c3ccc(OC4CCN(C(=O)[C@H](C)O)CC4(F)F)c(C#N)c3)n2)ccc1N1CCN(C)C[C@@H]1C` (stereo partly drawn) [Example 113, 2-[3,3-Difluoro-1-((S)-2-hydroxy-propionyl)-piperidin-4-yloxy]-5-{2-[5-((S)-2,4-dimethyl-piperazin-1-yl)-6-methoxy-pyridin-2-ylamino]-pyrimidin-4-yl}-benzonitrile]: the IC50 at IKKε and at TBK1 was less than 100 nM throughout.

For `COc1nc(Nc2nccc(-c3ccc(OC4CCN(C(=O)C(C)(C)O)CC4(F)F)c(C#N)c3)n2)ccc1N1CCN(C)C[C@H]1C` (stereo partly drawn) [Example 114, 2-[3,3-Difluoro-1-(2-hydroxy-2-methyl-propionyl)-piperidin-4-yloxy]-5-{2-[5-((R)-2,4-dimethyl-piperazin-1-yl)-6-methoxy-pyridin-2-ylamino]-pyrimidin-4-yl}-benzonitrile], the IC50 on IKKε and on TBK1 was less than 100 nM throughout.

In the case of `COc1nc(Nc2nccc(-c3ccc(O[C@H]4CCN(C(=O)c5cnn[nH]5)C[C@H]4F)c(C#N)c3)n2)ccc1N1CCN(C2COC2)CC1` [Example 115, 2-[[(3R,4S)-3-fluoro-1-[(1H-1,2,3-triazol-5-yl)carbonyl]piperidin-4-yl]oxy]-5-[2-([6-methoxy-5-[4-(oxetan-3-yl)piperazin-1-yl]pyridin-2-yl]amino)pyrimidin-4-yl]benzonitrile], the IC50 on IKKε and on TBK1 was less than 100 nM throughout.

For `COc1nc(Nc2nccc(-c3ccc(O[C@H]4CCN(C(=O)[C@H](C)O)C[C@H]4F)c(C#N)c3)n2)ccc1N1CCN(C2COC2)CC1` [Example 116, 2-[(3R,4S)-3-Fluoro-1-((S)-2-hydroxy-propionyl)-piperidin-4-yloxy]-5-{2-[6-methoxy-5-(4-oxetan-3-yl-piperazin-1-yl)-pyridin-2-ylamino]-pyrimidin-4-yl}-benzonitrile], the IC50 on IKKε and on TBK1 was less than 100 nM each time.

As for `COc1nc(Nc2nccc(-c3ccc(O[C@@H]4CCN(C(=O)[C@@H](C)O)C[C@@H]4F)c(C#N)c3)n2)ccc1N1CCN(C2COC2)CC1` [Example 117, 2-[(3S,4R)-3-Fluoro-1-((R)-2-hydroxy-propionyl)-piperidin-4-yloxy]-5-{2-[6-methoxy-5-(4-oxetan-3-yl-piperazin-1-yl)-pyridin-2-ylamino]-pyrimidin-4-yl}-benzonitrile], the IC50 on IKKε and at TBK1 was less than 100 nM throughout.

As for `COc1nc(Nc2nccc(-c3ccc(O[C@@H]4CCN(C(=O)[C@H](C)O)C[C@@H]4F)c(C#N)c3)n2)ccc1N1CCN(C2COC2)CC1` [Example 118, 2-[(3S,4R)-3-Fluoro-1-((S)-2-hydroxy-propionyl)-piperidin-4-yloxy]-5-{2-[6-methoxy-5-(4-oxetan-3-yl-piperazin-1-yl)-pyridin-2-ylamino]-pyrimidin-4-yl}-benzonitrile], the IC50 at IKKε and on TBK1 was less than 100 nM each time.

For the molecule `COc1nc(Nc2nccc(-c3ccc(OC4CCNCC4(F)F)c(C#N)c3)n2)ccc1N1CCN(C2COC2)CC1` (centres unmarked) [Example 119], the IC50 on IKKε and on TBK1 was less than 100 nM each time.

As to `COc1nc(Nc2nccc(-c3ccc(O[C@H]4CCN(C(=O)[C@H](C)O)CC4(F)F)c(C#N)c3)n2)ccc1N1CCN(C2COC2)CC1` [Example 120, 2-([3,3-difluoro-1-[(2S)-2-hydroxypropanoyl]piperidin-4-yl]oxy)-5-[2-([6-methoxy-5-[4-(oxetan-3-yl)piperazin-1-yl]pyridin-2-yl]amino)pyrimidin-4-yl]benzonitrile], the IC50 at IKKε and at TBK1 was less than 100 nM in each case.

For `COc1nc(Nc2nccc(-c3ccc(O[C@@H]4CCN(C(=O)[C@H](C)O)CC4(F)F)c(C#N)c3)n2)ccc1N1CCN(C2COC2)CC1` [Example 122, 2-[[(4R)-3,3-difluoro-1-[(2S)-2-hydroxypropanoyl]piperidin-4-yl]oxy]-5-[2-([6-methoxy-5-[4-(oxetan-3-yl)piperazin-1-yl]pyridin-2-yl]amino)pyrimidin-4-yl]benzonitrile], the IC50 at IKKε and on TBK1 was less than 100 nM throughout.

In the case of `COc1nc(Nc2nccc(-c3ccc(OC4CCNCC4(F)F)c(C#N)c3)n2)ccc1N1CCN(C2COC2)[C@@H](C)C1` (stereo partly drawn) [Example 123, 2-(3,3-Difluoro-piperidin-4-yloxy)-5-{2-[6-methoxy-5-((S)-3-methyl-4-oxetan-3-yl-piperazin-1-yl)-pyridin-2-ylamino]-pyrimidin-4-yl}-benzonitrile], the IC50 at IKKε and at TBK1 was less than 100 nM in each case.

Take `COc1nc(Nc2nccc(-c3ccc(OC4CCNCC4(F)F)c(C#N)c3)n2)ccc1N1CCN(C2COC2)[C@H](C)C1` (stereo partly drawn) [Example 124, 2-(3,3-Difluoro-piperidin-4-yloxy)-5-{2-[6-methoxy-5-((R)-3-methyl-4-oxetan-3-yl-piperazin-1-yl)-pyridin-2-ylamino]-pyrimidin-4-yl}-benzonitrile]: the IC50 at IKKε and on TBK1 was less than 100 nM in each case.

`COc1nc(Nc2nccc(-c3ccc(OC4CCN(C(=O)[C@@H](C)O)CC4(F)F)c(C#N)c3)n2)ccc1N1CCN(C2COC2)[C@@H](C)C1` (stereo partly drawn) [Example 125, 2-[3,3-Difluoro-1-((R)-2-hydroxy-propionyl)-piperidin-4-yloxy]-5-{2-[6-methoxy-5-((S)-3-methyl-4-oxetan-3-yl-piperazin-1-yl)-pyridin-2-ylamino]-pyrimidin-4-yl}-benzonitrile]: the IC50 on IKKε and on TBK1 was less than 100 nM throughout.

For the molecule `COc1nc(Nc2nccc(-c3ccc(OC4CCN(C(=O)[C@@H](C)O)CC4(F)F)c(C#N)c3)n2)ccc1N1CCN(C2COC2)[C@H](C)C1` (stereo partly drawn) [Example 126, 2-[3,3-Difluoro-1-((R)-2-hydroxy-propionyl)-piperidin-4-yloxy]-5-{2-[6-methoxy-5-((R)-3-methyl-4-oxetan-3-yl-piperazin-1-yl)-pyridin-2-ylamino]-pyrimidin-4-yl}-benzonitrile], the IC50 on IKKε and at TBK1 was less than 100 nM each time.
